Test results reported in article PMC5655044, “Reducing Antibacterial Development Risk for GSK1322322 by Exploring Potential Human Dose Regimens in Nonclinical Efficacy Studies Using Immunocompetent Rats” (Antimicrobial Agents and Chemotherapy, 2017).
≈ marks a conversion by molar mass, not a printed value. Where “and” joins values, the source holds several entries; their conditions need not be identical. Identical values can stand only once. Like-named read-outs stand apart in the source and are kept apart here.

Columns and labels:
H. influenzae [1] = test: Rat model of H. influenzae pneumonia with recreated human exposure profiles; type: in vivo; conditions: for Log10 reductions versus the levels at the baseline: 96 h
Protocol: (§1) The respiratory tract infection model was performed as previously described by Hoover et al. with slight modifications ([25]). Briefly, rats were anesthetized with a cocktail containing ketamine hydrochloride (Ketaset; 40 mg/kg) and xylazine (Rompun; 5 mg/kg) via intramuscular injection of 150 μl. The infection was induced by instilling 200 μl of the bacterial suspension in cooled, molten nutrient agar directly into the left lung via nonsurgical intratracheal intubation. As described in detail by Hoover et al., the use of agar for the inoculum boosts the ability of these organisms to establish infection in immunocompetent animals ([25]). The final inoculum ranged from 5.7 to 6.2 log10 CFU/rat for S. pneumoniae and 6.2 to 7.5 log10 CFU/rat for H. influenzae.
(§2) Solutions were freshly prepared each day.
(§3) One set of rats was euthanized at 1 h postinfection to establish the baseline bacterial burden at the time that dosing was initiated. All remaining animals were euthanized at 96 h postinfection. Euthanasia was achieved by carbon dioxide overdose, and infected tissues were excised aseptically and homogenized in 1 ml PBS using a laboratory blender (Stomacher 80; Seward Ltd., Worthing, West Sussex, UK). The lungs were removed whole and blotted to remove excess blood prior to processing. Abscesses were excised intact by removing all surrounding skin and tissue to ensure collection of the entire infected area along with the complete abscess itself. For enumeration of viable bacterial numbers, 10-fold serial dilutions were prepared in PBS and triplicate samples of 20 μl each were inoculated onto Trypticase soy agar supplemented with 5% sheep's blood (S. pneumoniae and S. aureus) or chocolate agar (H. influenzae) by a modified Miles-Misra technique ([27], [28]), using a Hamilton Microlab AT 2 Plus system. The colonies were counted following overnight incubation at 37°C, and the limit of detection was ≤1.7 log10 CFU/tissue.
(§4) The outcome measure for efficacy was the number of bacteria isolated from the infected tissues (number of log10 CFU per lungs or number of log10 CFU per abscess) at the conclusion of the study. Results are presented either as group means or as the change in the number of CFU from that at the baseline with associated standard errors of the means (SEM) for the difference. Statistical analysis was performed using the Student t test with a significance level of 0.05.

S. aureus [2] = test: Rat model of S. aureus abscess with recreated human exposure profiles; type: in vivo; conditions: recreated AZM 1,000/500-mg profile, all three (macrolide-resistant) S. aureus isolates
Protocol: Rats were also anesthetized as described above for establishment of the abscess infection model. A subcutaneous groin abscess was created by injecting 1 ml of the bacterial suspension in semisolid nutrient agar subcutaneously into the loose skin of the right groin area. The final inoculum for the S. aureus strains utilized ranged from 6.4 to 7.2 log10 CFU/rat.
as §2
as §3, with “For enumeration of viable bacterial numbers, 10-fold serial dilutions were prepared in PBS and triplicate samples of 20 μl each were inoculated onto Trypticase soy agar supplemented with 5% sheep's blood (S. pneumoniae and S. aureus) or chocolate agar (H. influenzae) by a modified Miles-Misra technique ([27], [28]), using a Hamilton Microlab AT 2 Plus system.” left out, “CFU/tissue. […]” for “CFU/tissue.”

H. influenzae [3] = test: MIC by CLSI broth microdilution, H. influenzae isolates; type: cell-based, Haemophilus influenzae; design: key to Susceptibility category (superscript to MIC): R, resistant; S, susceptible; NS, nonsusceptible (resistance not defined); conditions: for MIC: Haemophilus influenzae
Protocol: (§5) The strains chosen for these studies were clinical isolates from the GSK collection. They were selected on the basis of their desired susceptibility to GSK1322322, resistance phenotype, proven ability to produce robust infections in the rat infection models used in the present study, and previous validation in the models using positive- and negative-control antimicrobials (data on file). MICs were determined using the Clinical and Laboratory Standards Institute-recommended standards for broth microdilution ([24]) and are shown in Table 2. The MIC assay was repeated multiple times for each isolate, and results were consistent (within an accepted variation of ±1 dilution) across assays.

S. aureus [4] = test: MIC by CLSI broth microdilution, S. aureus isolates; type: cell-based, Staphylococcus aureus; design: key to Susceptibility category (superscript to MIC): R, resistant; S, susceptible; NS, nonsusceptible (resistance not defined); conditions: for MIC: Staphylococcus aureus
Protocol: as §5

S. pneumoniae [5] = test: Rat model of S. pneumoniae pneumonia with recreated human exposure profiles; type: in vivo; conditions: for Reduction in bacterial burden compared with controls at baseline: LVX- and AZM-resistant S. pneumoniae isolate, recreated human profiles (LVX 500 mg, AZM 1,000/500 mg once daily)
Protocol: as §1, §2, §3, §4

[6] = cited from earlier work; for AUC0–t Human / Cmax Human: estimated from published oral PK data; for AUC from 0 to 12 h postdosing: human
S. pneumoniae [7] = test: MIC by CLSI broth microdilution, S. pneumoniae isolates; type: cell-based, Streptococcus pneumoniae; design: key to Susceptibility category (superscript to MIC): R, resistant; S, susceptible; NS, nonsusceptible (resistance not defined); conditions: for MIC: Streptococcus pneumoniae
Protocol: as §5

[8] = Blood versus plasma concentrations, rat; type: in vitro ADME; conditions: rat (data on file)
[9] = Blood versus plasma concentrations, human; type: in vitro ADME; conditions: human (data on file)
[10] = Epithelial lining fluid penetration in infected rats; type: in vivo; conditions: rat, epithelial lining fluid (total drug) / plasma (free drug); infected rats (data on file); read-out: Ratio of the total drug epithelial lining fluid AUC to the free drug plasma AUC
[11] = design: method as in PMID 24189245; conditions: healthy volunteers; cited from earlier work
[12] = susceptible S. pneumoniae strain, recreated human profiles, bacterial numbers reduced to below or close to the limit of detection

Row | Compound | Susceptibility category (superscript to MIC) (S. aureus [4]; S. aureus PVL-2) | Susceptibility category (superscript to MIC) (S. aureus [4]; S. aureus X32601) | MIC (S. aureus [4]; S. aureus PVL-2) | MIC (S. aureus [4]; S. aureus X32601) | Susceptibility category (superscript to MIC) (H. influenzae [3]; H. influenzae 511343) | Susceptibility category (superscript to MIC) (H. influenzae [3]; H. influenzae 1302002H) | Susceptibility category (superscript to MIC) (H. influenzae [3]; H. influenzae H128) | MIC (H. influenzae [3]; H. influenzae 511343) | MIC (H. influenzae [3]; H. influenzae 1302002H) | MIC (H. influenzae [3]; H. influenzae H128) | Susceptibility category (superscript to MIC) (S. aureus [4]; S. aureus A-24) | MIC (S. aureus [4]; S. aureus A-24) | Reduction in bacterial burden compared with controls at baseline (S. pneumoniae [5]; 96 h) | Effect on bacterial burden (S. pneumoniae [5]; [12]) | Susceptibility category (superscript to MIC) (S. pneumoniae [7]; S. pneumoniae ERY2) | Susceptibility category (superscript to MIC) (S. pneumoniae [7]; S. pneumoniae L11259) | Susceptibility category (superscript to MIC) (S. pneumoniae [7]; S. pneumoniae TPS3) | MIC (S. pneumoniae [7]; S. pneumoniae ERY2) | MIC (S. pneumoniae [7]; S. pneumoniae L11259) | MIC (S. pneumoniae [7]; S. pneumoniae TPS3) | other results
1 | CC[C@H]1OC(=O)[C@H](C)[C@@H](O[C@H]2C[C@@](C)(OC)[C@@H](O)[C@H](C)O2)[C@H](C)[C@@H](O[C@@H]2O[C@H](C)C[C@H](N(C)C)[C@H]2O)[C@](C)(O)C[C@@H](C)CN(C)[C@H](C)[C@@H](O)[C@]1(C)O [AZM, azithromycin] | R | R | > 64 µg/mL | > 64 µg/mL | S | S | S | 4 µg/mL (≈ 5.34 µM) | 2 µg/mL (≈ 2.67 µM) | 0.5 µg/mL (≈ 0.668 µM) | R | > 64 µg/mL | did not demonstrate any reduction in bacterial burden | highly effective | R | S | R | 16 µg/mL (≈ 21.4 µM) | 0.03 µg/mL (≈ 0.0401 µM) | 4 µg/mL (≈ 5.34 µM) | Log10 reductions versus the levels at the baseline (H. influenzae [1]; recreated AZM 1,000-mg loading then 500-mg profile once daily, two of three H. influenzae isolates): 1.2 log10 CFU/lungs and 1.4 log10 CFU/lungs; Efficacy (H. influenzae [1]; recreated AZM 1,000/500-mg profile, H. influenzae isolate with AZM MIC of 4 mg/liter): ineffective; Efficacy (S. aureus [2]): ineffective; Effect on bacterial burden (S. pneumoniae [5]; second AZM-resistant S. pneumoniae isolate, recreated AZM 1,000/500 mg profile, 96 h): no effect; AUC0–t Human ([6]; 1,000/500 mg oral steady-state profile, 24 h interval): 4.9 µg·h/mL; Cmax Human ([6]; 1,000/500 mg oral steady-state profile): 500 ng/mL
2 | CC(=O)NC[C@H]1CN(c2ccc(N3CCOCC3)c(F)c2)C(=O)O1 [LZD, linezolid] | S | S | 2 µg/mL (≈ 5.93 µM) | 1 µg/mL (≈ 2.96 µM) |  |  |  |  |  |  | S | 4 µg/mL (≈ 11.9 µM) |  |  |  |  |  |  |  |  | AUC0–t Human ([6]; 625 mg oral steady state, 12 h interval): 147 µg·h/mL; AUC from 0 to 12 h postdosing ([6]; LZD 625 mg oral): 147 µg·h/mL; AUC from 0 to 12 h postdosing ([6]; LZD 600-mg approved oral dose): 138 µg·h/mL
3 | Cc1nc(NNC(=O)[C@H](CC2CCCC2)CN(O)C=O)c(F)c(N2CCN3CCOC[C@@H]3C2)n1 [GSK1322322] |  |  | 4 µg/mL (≈ 8.34 µM) | 1 µg/mL (≈ 2.09 µM) |  |  |  | 4 µg/mL (≈ 8.34 µM) | 4 µg/mL (≈ 8.34 µM) | 2 µg/mL (≈ 4.17 µM) |  | 4 µg/mL (≈ 8.34 µM) |  |  |  |  |  | 0.5 µg/mL (≈ 1.04 µM) | 2 µg/mL (≈ 4.17 µM) | 0.5 µg/mL (≈ 1.04 µM) | Blood and plasma concentrations compared [8]: similar; Blood and plasma concentrations compared [9]: similar; Kp [10]: 3.3; Ratio of the total drug epithelial lining fluid AUC to the free drug plasma AUC [11]: 3.5

Now from value to compound, other results behind:

Row | Susceptibility category (superscript to MIC) (S. aureus [4]; S. aureus PVL-2) | Susceptibility category (superscript to MIC) (S. aureus [4]; S. aureus X32601) | MIC (S. aureus [4]; S. aureus PVL-2) | MIC (S. aureus [4]; S. aureus X32601) | Compound | Susceptibility category (superscript to MIC) (H. influenzae [3]; H. influenzae 511343) | Susceptibility category (superscript to MIC) (H. influenzae [3]; H. influenzae 1302002H) | Susceptibility category (superscript to MIC) (H. influenzae [3]; H. influenzae H128) | MIC (H. influenzae [3]; H. influenzae 511343) | MIC (H. influenzae [3]; H. influenzae 1302002H) | MIC (H. influenzae [3]; H. influenzae H128) | Susceptibility category (superscript to MIC) (S. aureus [4]; S. aureus A-24) | MIC (S. aureus [4]; S. aureus A-24) | Reduction in bacterial burden compared with controls at baseline (S. pneumoniae [5]; 96 h) | Effect on bacterial burden (S. pneumoniae [5]; [12]) | Susceptibility category (superscript to MIC) (S. pneumoniae [7]; S. pneumoniae ERY2) | Susceptibility category (superscript to MIC) (S. pneumoniae [7]; S. pneumoniae L11259) | Susceptibility category (superscript to MIC) (S. pneumoniae [7]; S. pneumoniae TPS3) | MIC (S. pneumoniae [7]; S. pneumoniae ERY2) | MIC (S. pneumoniae [7]; S. pneumoniae L11259) | MIC (S. pneumoniae [7]; S. pneumoniae TPS3) | other results
4 | R | R | 32 µg/mL (≈ 79.7 µM) | > 64 µg/mL | Cc1onc(-c2ccccc2)c1C(=O)N[C@@H]1C(=O)N2[C@@H]1SC(C)(C)[C@@H]2C(=O)O [Oxacillin] |  |  |  |  |  |  |  |  |  |  |  |  |  |  |  |  | 
5 | S | R | 0.25 µg/mL (≈ 0.692 µM) | 32 µg/mL (≈ 88.6 µM) | C[C@H]1COc2c(N3CCN(C)CC3)c(F)cc3c(=O)c(C(=O)O)cn1c23 [LVX, levofloxacin] | NS | S | S | 4 µg/mL (≈ 11.1 µM) | 0.06 µg/mL (≈ 0.166 µM) | 0.016 µg/mL (≈ 0.0443 µM) |  |  | did not demonstrate any reduction in bacterial burden | highly effective | S | S | R | 1 µg/mL (≈ 2.77 µM) | 1 µg/mL (≈ 2.77 µM) | 32 µg/mL (≈ 88.6 µM) | Log10 reductions versus the levels at the baseline (H. influenzae [1]; recreated 500-mg LVX profile once daily, two susceptible H. influenzae isolates): 4.2 log10 CFU/lungs and 4.5 log10 CFU/lungs; Efficacy (H. influenzae [1]; recreated 500-mg LVX profile, nonsusceptible H. influenzae strain): ineffective; AUC0–t Human ([6]; 500 mg single oral dose, 24 h interval): 40 µg·h/mL; Cmax Human ([6]; 500 mg single oral dose): 4300 ng/mL
